Test results from patent US11944662B2, “Methods and compositions for preventing or treating ophthalmic conditions” (Stealth BioTherapeutics Inc., priority 2009, dated 2024).
Like-named read-outs stand apart in the source and are kept apart here. Where a SMILES comes first, the peptide text is derived from it. Where no end group is shown, it is not given here. [ ]: non-standard residue; d: D form. Dmt = Cc1cc(O)cc(C)c1C[C@H](N)C(=O)O

Key:
HTM cells [1] = conditions: n=4
Description: (§1) FIG. 37 is a graph showing the fluorescence intensity of ROS of GTM and HTM cells in control and SS-31-treated groups, as measured using FACS analysis.

GTM cells [2] = conditions: n=3
Description: as §1

GTM cells [3] = conditions: n=4
Description: (§4) The effects of SS-31 at mitigating acute oxidative injury in GTM and HTM cells was investigated.

HRECs = experiment: Survival of HRECs in high glucose, Annexin V/PI flow cytometry; type: cell-based, human; conditions: 24 hours after treatment
Method: FIGS. 1A and 1B show the effects of different concentrations of SS-31 (10 nM, 100 nM, 1 μM and 10 μM) used as co-treatment with 30 mM glucose (HG). […] FIG. 1B is a graphic representation of the survival ratio for HRECs.
See generally, Li B, Tang S B, Zhang G, Chen J H, Li B J. Culture and characterization of human retinal capillary endothelial cell. Chin Ophthal Res 2005; 23: 20-2; Premanand C, Rema M, Sameer M Z, Sujatha M, Balasubramanyam M. Effect of curcumin on proliferation of human retinal endothelial cells under in vitro conditions. Invest Ophthalmol Vis Sci 2006; 47: 2179-84.
Briefly, HREC cells were divided into three groups: a normal control group; a group administered 30 mM glucose; and a group administered 30 mM glucose+SS-31. Survival of HRECs in high glucose co-treated with different concentrations of SS-31 (10 nM, 100 nM, 1 μM, 10 μM) was measured using an Annexin V+PI assay and flow cytometry. See generally, Koopman, G., Reutelingsperger, C. P., Kuijten, G. A. M., Keehnen, R. M. J., Pals, S. T., and van Oers, M. H. J. 1994. Annexin V for flow cytometric detection of phosphatidylserine expression on B cells undergoing apoptosis. Blood 84: 1415; Homburg, C. H., de Haas, M., von dem Borne, A. E., Verhoeven, A. J., Reutelingsperger, C. P., and Roos, D. 1995. Human neutrophils lose their surface Fc gamma Rill and acquire Annexin V binding sites during apoptosis in vitro. Blood 85: 532; Vermes, I., Haanen, C., Steffens-Nakken, H., and Reutelingsperger, C. 1995. A novel assay for apoptosis-flow cytometric detection of phosphatidylserine expression on early apoptotic cells using fluorescein labelled Annexin V. J. Immunol. Meth. 184: 39; Fadok, V. A., Voelker, D. R., Campbell, P. A., Cohen, J. J., Bratton, D. L., and Henson, P. M. 1992. Exposure of phosphatidylserine on the surface of apoptotic lymphocytes triggers specific recognition and removal by macrophages. J. Immunol. 148: 2207.
The survival of HRECs in high glucose co-treated with SS-31 was tested at 24 h and 48 h.

[4] = tested on: trabecular meshwork cells from glaucoma patients (GTM)
Method: (§2) To assess whether SS-31 had cytotoxic effects of HTM or GTM cells, various concentrations of SS-31 were administered to cells and the cytotoxicity was measured using an LDH assay. A LDH cytotoxicity assay is a colorimetric method of assaying cellular cytotoxicity. The assay quantitatively measures the stable, cytosolic, lactate dehydrogenase (LDH) enzyme, which is released from damaged cells. The released LDH is measured with a coupled enzymatic reaction that results in the conversion of a tetrazolium salt (iodonitrotetrazolium (INT)) into a red color formazan by diaphorase. […] See generally, Haslam, G. et al. (2005) Anal. Biochem. 336: 187; Tarnawski, A. (2005) Biochem. Biophys. Res. Comm. 333: 207; Round, J. L et al. (2005) J. Exp. Med. 201: 419; Bose, C. et al. (2005) Am. J. Physiol. Gastr. L. 289: G926; Chen, A. and Xu, J. (2005) Am. J. Physiol. Gastr. L. 288: G447. The LDH activity is determined as NADH oxidation or INT reduction over a defined time period.

[5] = tested on: trabecular meshwork cells from non-diseased individuals (HTM)
Method: as §2

HTM cells [6] = conditions: n=4; remark: listed apart in the source
Description: as §4

[7] = tested on: primary human retinal pigment epithelial (RPE) cells; conditions: different concentrations, 24 h
Method: Primary cultured human RPE cells were incubated with different concentrations of SS-31 alone for a period of 24 h, and cell viability was determined by a MTT assay (FIG. 22).

[8] = tested on: inner blood-retinal barrier; experiment: Inner blood-retinal barrier function, Evans blue extravasation, diabetic rats; type: in vivo, Sprague-Dawley rat; conditions: compared to rats on a HFD not administered SS-20 or SS-31
Description: FIGS. 10A-10B is a series of charts showing the integrity of the blood-retinal barrier of normal rats (NRC), diabetic rats, and diabetic rats treated with SS-20 or SS-31, as analyzed by Evans blue extravasation. (10A) diabetes induced by STZ; (10B) diabetes induced by HFD/STZ.
The effect of the aromatic-cationic peptides on the inner blood-retinal barrier function in the SD rat model was investigated.

lenses of diabetic rats [9] = experiment: Cataract formation in lenses, HFD/STZ diabetic rat model; type: in vivo, Sprague-Dawley rat; conditions: for Percentage of opacity (%) / Percentage of severe opacity (%) / Turbidity degree ++++ (count) / Turbidity degree +++ (count) / Turbidity degree ++ (count) / Turbidity degree + (count) / Turbidity degree − (count): HFD/STZ rat model; for Turbidity degree ++++ (count): ++++: severely opaque; for Turbidity degree +++ (count): +++: moderately opaque; for Turbidity degree ++ (count): ++: opaque; for Turbidity degree + (count): +: mildly opaque; for Turbidity degree − (count): −: transparent
Method: The example describes the results of such experiments.
(§3) A rat model of diabetes was established by combination of 6-week HFD and low dose of STZ (30 mg/kg) injection or a single high dose of STZ (65 mg/kg) in SD rats. See generally, K. Srinivasan, B. Viswanad, Lydia Asrat, C. L. Kaul and P. Ramarao, Combination of high-fat diet-fed and low-dose streptozotocin-treated rat: A model for type 2 diabetes and pharmacological screening, Pharmacological Research, 52(4): 313-320, 2005. Rats of the same batch fed with normal chow (NRC) were used as a control.

lenses of diabetic rats [10] = experiment: Cataract formation in lenses, STZ diabetic rat model; type: in vivo, Sprague-Dawley rat; conditions: 10 mg (Table 9: 10 mg/kg s.c.)
Method: as §3

Cc1cc(O)cc(C)c1C[C@H](NC(=O)[C@H](N)CCCNC(=N)N)C(=O)N[C@@H](CCCCN)C(=O)N[C@@H](Cc1ccccc1)C(N)=O [SS-31, D-Arg-2′,6′-Dmt-Lys-Phe-NH2] (H-[dR][Dmt]KF-NH2)
percentage of intracellular ROS production, HTM groups (HTM cells [1]; H2O2 + SS-31 10^−6 M): 79±2.39%
percentage of intracellular ROS production, HTM groups (HTM cells [1]; H2O2 + SS-31 10^−7 M): 91.8±3.49%
percentage of intracellular ROS production, HTM groups (HTM cells [1]; H2O2 + SS-31 10^−8 M): 129.0±8.24%
percentage of intracellular ROS production compared to GTM control (GTM cells [2]; H2O2 + SS-31 10^−6 M): 84.5±8.75%
percentage of intracellular ROS production compared to GTM control (GTM cells [2]; H2O2 + SS-31 10^−7 M): 102.0±5.69%
percentage of intracellular ROS production compared to GTM control (GTM cells [2]; H2O2 + SS-31 10^−8 M): 133.0±5.17%
percentage of fluorescence intensity of TMRM compared to GTM control (GTM cells [3]; H2O2 + SS-31 10^−6 M): 56.2±4.04%
percentage of fluorescence intensity of TMRM compared to GTM control (GTM cells [3]; H2O2 + SS-31 10^−7 M): 50.3±4.46%
percentage of fluorescence intensity of TMRM compared to GTM control (GTM cells [3]; H2O2 + SS-31 10^−8 M): 47.5±2.82%
survival ratios for HRECs (Q3) (HRECs; 30 mM glucose + SS-31 10 nM): 84.3%
survival ratios for HRECs (Q3) (HRECs; 30 mM glucose + SS-31 100 nM): 90.7%
survival ratios for HRECs (Q3) (HRECs; 30 mM glucose + SS-31 1 μM): 92.8%
survival ratios for HRECs (Q3) (HRECs; 30 mM glucose + SS-31 10 μM): 94.3%
cytotoxicity ([4]; at 10^−3 M): no cytotoxicity
viability (LDH cytotoxicity assay) ([4]; various concentrations): does not affect the viability
cytotoxicity ([5]; at 10^−3 M): no cytotoxicity
viability (LDH cytotoxicity assay) ([5]; various concentrations): does not affect the viability
percentage of fluorescence intensity of TMRM, HTM groups (HTM cells [6]; H2O2 + SS-31 10^−6 M): 57.7±1.80%
percentage of fluorescence intensity of TMRM, HTM groups (HTM cells [6]; H2O2 + SS-31 10^−7 M): 50.6±3.06%
percentage of fluorescence intensity of TMRM, HTM groups (HTM cells [6]; H2O2 + SS-31 10^−8 M): 49.4±2.27%
cell viability (MTT assay), SS-31 alone [7]: did not adversely effect

F[dR]FK-NH2 [SS-20]
inner blood-retinal barrier function [8]: improved
cataract formation in the lenses of diabetic rats (lenses of diabetic rats [9]; HFD/STZ and STZ models (FIGS. 6 and 7, Tables 11 and 12)): prevention or reversal of cataract formation
Percentage of opacity (%) (lenses of diabetic rats [9]; 3 mg (Table 7: 3 mg/kg s.c.)): 75.0%
Percentage of severe opacity (%) (lenses of diabetic rats [9]; 3 mg (Table 7: 3 mg/kg s.c.)): 25.0%
Turbidity degree ++++ (count) (lenses of diabetic rats [9]; 3 mg (Table 7: 3 mg/kg s.c.)): 1
Turbidity degree +++ (count) (lenses of diabetic rats [9]; 3 mg (Table 7: 3 mg/kg s.c.)): 0
Turbidity degree ++ (count) (lenses of diabetic rats [9]; 3 mg (Table 7: 3 mg/kg s.c.)): 1
Turbidity degree + (count) (lenses of diabetic rats [9]; 3 mg (Table 7: 3 mg/kg s.c.)): 1
Turbidity degree − (count) (lenses of diabetic rats [9]; 3 mg (Table 7: 3 mg/kg s.c.)): 1
Percentage of opacity (%) (lenses of diabetic rats [9]; 10 mg (Table 7: 10 mg/kg s.c.)): 75.0%
Percentage of severe opacity (%) (lenses of diabetic rats [9]; 10 mg (Table 7: 10 mg/kg s.c.)): 0%
Turbidity degree ++++ (count) (lenses of diabetic rats [9]; 10 mg (Table 7: 10 mg/kg s.c.)): 0
Turbidity degree +++ (count) (lenses of diabetic rats [9]; 10 mg (Table 7: 10 mg/kg s.c.)): 0
Turbidity degree ++ (count) (lenses of diabetic rats [9]; 10 mg (Table 7: 10 mg/kg s.c.)): 1
Turbidity degree + (count) (lenses of diabetic rats [9]; 10 mg (Table 7: 10 mg/kg s.c.)): 2
Turbidity degree − (count) (lenses of diabetic rats [9]; 10 mg (Table 7: 10 mg/kg s.c.)): 1
Percentage of opacity (%) (lenses of diabetic rats [10]): 60.0%
Percentage of severe opacity (%) (lenses of diabetic rats [10]): 20.0%
Opacity degree ++++ (count) (lenses of diabetic rats [10]; ++++: severely opaque): 1
Opacity degree +++ (count) (lenses of diabetic rats [10]; +++: moderately opaque): 0
Opacity degree ++ (count) (lenses of diabetic rats [10]; ++: opaque): 2
Opacity degree + (count) (lenses of diabetic rats [10]; +: mildly opaque): 0
Opacity degree − (count) (lenses of diabetic rats [10]; −: transparent): 2
